Source: patent US20250073255A1, “USE OF FA-TYPE LIPID COMPOUNDS IN PREPARATION OF NUCLEIC ACID DELIVERY REAGENT AND RELATED PRODUCT” (BEIJING BAISHIKANG PHARMACEUTICAL TECHNOLOGY (BSJPHARMA) …, priority 2021, published 2025)

Test system: C57BL/6 male mice
Test: In vivo delivery study of lipid nucleic acid mixture (oral gavage, RT-qPCR of PGY-sRNA-26 in tissues)
Parameters: species or system mouse
Details: for overall delivery efficacy: delivering nucleic acids into each tissue and blood tested: 100 μg lipid:10 nmol PGY-sRNA-26, all tissues and blood tested; for oral delivery of single-stranded sRNA nucleic acids into mouse blood / oral delivery of single-stranded sRNA nucleic acids into mouse brain tissue / oral delivery of single-stranded sRNA nucleic acids into mouse femur / oral delivery of single-stranded sRNA nucleic acids into mouse heart tissue / oral delivery of single-stranded sRNA nucleic acids into mouse intestinal tissue / oral delivery of single-stranded sRNA nucleic acids into mouse kidney tissue / oral delivery of single-stranded sRNA nucleic acids into mouse liver tissue / oral delivery of single-stranded sRNA nucleic acids into mouse lung tissue / oral delivery of single-stranded sRNA nucleic acids into mouse spleen tissue / oral delivery of single-stranded sRNA nucleic acids into mouse stomach tissue / oral delivery of single-stranded sRNA nucleic acids into mouse pancreatic tissue: 100 μg lipid:10 nmol PGY-sRNA-26, sampled after 12 hours; for oral delivery of single-stranded sRNA nucleic acids into mouse heart tissue: vs free uptake group; for oral delivery of single-stranded sRNA nucleic acids into mouse intestinal tissue: intestine; for oral delivery of single-stranded sRNA nucleic acids into mouse pancreatic tissue: pancreas
In short: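 Stem-loop RT and SYBR qPCR, normalized to U6, measured PGY-sRNA-26 in blood and organs 12 h after gavage. Dosing was 10 nmol sRNA with 100 μg lipid, pre-mixed and heated 15 min at 90 °C, in 12-h-fasted mice, against saline and free-sRNA groups.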

## O=C(O)CCCCCCCCCCCCCCC(=O)O [Lipid 529, hexadecanedioic acid]
  overall delivery efficacy: delivering nucleic acids into each tissue and blood tested: best delivery efficacy
  oral delivery of single-stranded sRNA nucleic acids into mouse blood: can effectively orally deliver
  oral delivery of single-stranded sRNA nucleic acids into mouse brain tissue: can effectively orally deliver
  oral delivery of single-stranded sRNA nucleic acids into mouse femur: can effectively orally deliver
  oral delivery of single-stranded sRNA nucleic acids into mouse heart tissue: can effectively orally deliver
  oral delivery of single-stranded sRNA nucleic acids into mouse intestinal tissue: can effectively orally deliver
  oral delivery of single-stranded sRNA nucleic acids into mouse kidney tissue: can effectively orally deliver
  oral delivery of single-stranded sRNA nucleic acids into mouse liver tissue: can effectively orally deliver
  oral delivery of single-stranded sRNA nucleic acids into mouse lung tissue: can effectively orally deliver
  oral delivery of single-stranded sRNA nucleic acids into mouse spleen tissue: can effectively orally deliver
  oral delivery of single-stranded sRNA nucleic acids into mouse stomach tissue: can effectively orally deliver

## CCCCCC(=O)OCCCC [Lipid 613, butyl hexanoate]
  overall delivery efficacy: delivering nucleic acids into each tissue and blood tested: best delivery efficacy
  oral delivery of single-stranded sRNA nucleic acids into mouse blood: can effectively orally deliver
  oral delivery of single-stranded sRNA nucleic acids into mouse brain tissue: can effectively orally deliver
  oral delivery of single-stranded sRNA nucleic acids into mouse femur: can effectively orally deliver
  oral delivery of single-stranded sRNA nucleic acids into mouse heart tissue: can effectively orally deliver
  oral delivery of single-stranded sRNA nucleic acids into mouse intestinal tissue: can effectively orally deliver
  oral delivery of single-stranded sRNA nucleic acids into mouse kidney tissue: can effectively orally deliver
  oral delivery of single-stranded sRNA nucleic acids into mouse liver tissue: can effectively orally deliver
  oral delivery of single-stranded sRNA nucleic acids into mouse lung tissue: can effectively orally deliver
  oral delivery of single-stranded sRNA nucleic acids into mouse spleen tissue: can effectively orally deliver
  oral delivery of single-stranded sRNA nucleic acids into mouse stomach tissue: can effectively orally deliver

## CCCCC/C=C\C/C=C\C/C=C\C/C=C\CCCC(=O)Nc1ccc(S(N)(=O)=O)cc1 [Lipid 826, (5Z,8Z,11Z,14Z)-N-(4-sulfamoylphenyl)icosa-5,8,11,14-tetraenamide]
  oral delivery of single-stranded sRNA nucleic acids into mouse blood: can effectively orally deliver
  oral delivery of single-stranded sRNA nucleic acids into mouse brain tissue: can effectively orally deliver
  oral delivery of single-stranded sRNA nucleic acids into mouse femur: can effectively orally deliver
  oral delivery of single-stranded sRNA nucleic acids into mouse heart tissue: can effectively orally deliver
  oral delivery of single-stranded sRNA nucleic acids into mouse intestinal tissue: can effectively orally deliver
  oral delivery of single-stranded sRNA nucleic acids into mouse kidney tissue: can effectively orally deliver
  oral delivery of single-stranded sRNA nucleic acids into mouse liver tissue: can effectively orally deliver
  oral delivery of single-stranded sRNA nucleic acids into mouse lung tissue: can effectively orally deliver
  oral delivery of single-stranded sRNA nucleic acids into mouse pancreatic tissue: can effectively orally deliver
  oral delivery of single-stranded sRNA nucleic acids into mouse spleen tissue: can effectively orally deliver
  oral delivery of single-stranded sRNA nucleic acids into mouse stomach tissue: can effectively orally deliver

## CCCCCC/C=C\CCCCCCCC(=O)OCCCCCCCCCCCCCCCCCCCCCC [Lipid 823, docosyl (Z)-hexadec-9-enoate]
  oral delivery of single-stranded sRNA nucleic acids into mouse blood: can effectively orally deliver
  oral delivery of single-stranded sRNA nucleic acids into mouse brain tissue: can effectively orally deliver
  oral delivery of single-stranded sRNA nucleic acids into mouse femur: can effectively orally deliver
  oral delivery of single-stranded sRNA nucleic acids into mouse heart tissue: can effectively orally deliver
  oral delivery of single-stranded sRNA nucleic acids into mouse intestinal tissue: can effectively orally deliver
  oral delivery of single-stranded sRNA nucleic acids into mouse kidney tissue: can effectively orally deliver
  oral delivery of single-stranded sRNA nucleic acids into mouse liver tissue: can effectively orally deliver
  oral delivery of single-stranded sRNA nucleic acids into mouse lung tissue: can effectively orally deliver
  oral delivery of single-stranded sRNA nucleic acids into mouse pancreatic tissue: can effectively orally deliver
  oral delivery of single-stranded sRNA nucleic acids into mouse spleen tissue: can effectively orally deliver
  oral delivery of single-stranded sRNA nucleic acids into mouse stomach tissue: can effectively orally deliver

## CC/C=C\C/C=C\C/C=C\CCCCCCCC(=O)OCCCCCCCCCCCC [Lipid 805, dodecyl (9Z,12Z,15Z)-octadeca-9,12,15-trienoate]
  oral delivery of single-stranded sRNA nucleic acids into mouse blood: can effectively orally deliver
  oral delivery of single-stranded sRNA nucleic acids into mouse brain tissue: can effectively orally deliver
  oral delivery of single-stranded sRNA nucleic acids into mouse femur: can effectively orally deliver
  oral delivery of single-stranded sRNA nucleic acids into mouse heart tissue: can effectively orally deliver
  oral delivery of single-stranded sRNA nucleic acids into mouse intestinal tissue: can effectively orally deliver
  oral delivery of single-stranded sRNA nucleic acids into mouse kidney tissue: can effectively orally deliver
  oral delivery of single-stranded sRNA nucleic acids into mouse liver tissue: can effectively orally deliver
  oral delivery of single-stranded sRNA nucleic acids into mouse lung tissue: can effectively orally deliver
  oral delivery of single-stranded sRNA nucleic acids into mouse pancreatic tissue: can effectively orally deliver
  oral delivery of single-stranded sRNA nucleic acids into mouse spleen tissue: can effectively orally deliver
  oral delivery of single-stranded sRNA nucleic acids into mouse stomach tissue: can effectively orally deliver

## CCCCCCCCCCCC(=O)OC/C=C(\C)CC/C=C(\C)CCC=C(C)C [Lipid 802, [(2E,6E)-3,7,11-trimethyldodeca-2,6,10-trienyl]dodecanoate]
  overall delivery efficacy: delivering nucleic acids into each tissue and blood tested: best delivery efficacy
  oral delivery of single-stranded sRNA nucleic acids into mouse blood: can effectively orally deliver
  oral delivery of single-stranded sRNA nucleic acids into mouse brain tissue: can effectively orally deliver
  oral delivery of single-stranded sRNA nucleic acids into mouse femur: can effectively orally deliver
  oral delivery of single-stranded sRNA nucleic acids into mouse heart tissue: can effectively orally deliver
  oral delivery of single-stranded sRNA nucleic acids into mouse intestinal tissue: can effectively orally deliver
  oral delivery of single-stranded sRNA nucleic acids into mouse kidney tissue: can effectively orally deliver
  oral delivery of single-stranded sRNA nucleic acids into mouse liver tissue: can effectively orally deliver
  oral delivery of single-stranded sRNA nucleic acids into mouse lung tissue: can effectively orally deliver
  oral delivery of single-stranded sRNA nucleic acids into mouse pancreatic tissue: can effectively orally deliver
  oral delivery of single-stranded sRNA nucleic acids into mouse spleen tissue: can effectively orally deliver
  oral delivery of single-stranded sRNA nucleic acids into mouse stomach tissue: can effectively orally deliver

## C=CC(=O)CCCCC [Lipid 619, oct-1-en-3-one]
  oral delivery of single-stranded sRNA nucleic acids into mouse blood: can effectively orally deliver
  oral delivery of single-stranded sRNA nucleic acids into mouse brain tissue: can effectively orally deliver
  oral delivery of single-stranded sRNA nucleic acids into mouse femur: can effectively orally deliver
  oral delivery of single-stranded sRNA nucleic acids into mouse intestinal tissue: can effectively orally deliver
  oral delivery of single-stranded sRNA nucleic acids into mouse kidney tissue: can effectively orally deliver
  oral delivery of single-stranded sRNA nucleic acids into mouse liver tissue: can effectively orally deliver
  oral delivery of single-stranded sRNA nucleic acids into mouse spleen tissue: can effectively orally deliver
  oral delivery of single-stranded sRNA nucleic acids into mouse stomach tissue: can effectively orally deliver
